Assay results reported in patent publication US20110244060A1, “CARDIOPROTECTIVE EFFECTS OF NUTRACEUTICALS ISOLATED FROM NIGELLA SATIVA SEEDS” (UNIVERSITI PUTRA MALAYSIA, priority 2008, published 2011).
Marks after values point to notes of the source that are not given here.

Key:
[1] = tested on: LDLR mRNA; assay: LDLR mRNA expression in HepG2 cells, quantitative real-time PCR; format: cell-based, human; conditions: TQ 2 μg/ml, compared to control cells
[2] = tested on: Apo A-1 mRNA; assay: Apo A-1 mRNA expression in HepG2 cells, real-time PCR; format: cell-based, human; conditions: HepG2 cells (in vitro), compared to the control
Description: (§1) For the determination of mRNA expression levels of LDLR, HMG-COAR, beta actin, Apo A-1, Apo E and Apo B100 by real time PCR, HepG2 cells were plated in 6-well plates at a density of 1.8×10^5 cells/well for 24 h. The cells were incubated with 10% HLPDS for 24 h with or without adding 2 μg/ml 25OH for another 24 h. The cells were treated with TQRF at two different doses, 80 and 50 μg/ml for 24 h, and with TQ at dose of 2 μg/ml Total RNA was isolated from HepG2 cells and rats liver tissues using RiboPure RNA Isolation Kit according to the manufacturer's instructions. […] Real-time quantitative PCR was performed using the Quantict Probe Real time PCR master mix according to the manufacturer's instructions. TaqMan Primers and probes specific for LDLR and HMG-COA genes were designed using the sequence entries from GenBank (Table. 1) Database and synthesis by Integrated DNA Technologies (IDT). Human beta-actin mRNA was used as housekeeping gene, TaqMan Primers and probes specific for human beta-actin gene was synthesis by Sigma Aldrich. The probes were labeled with FAM 3′ end and the fluorophores 6FAM at 5′ end. The real-time quantitative PCR reaction for each sample was carried out in triplicate and each experiment was repeated twice. […] Analysis of gene expression data was carried out by ΔΔCT method of relative quantification, according to Kenneth, et al, (2001) (32). […]

[3] = tested on: HMG-COAR mRNA; assay: HMG-COAR mRNA expression in rat liver, real-time PCR; conditions: rat liver (in vivo), compared to the control
Description: At the end of the experiment, all the rats were dissected and liver tissues for RNA isolation were removed, snap frozen with liquid nitrogen within approximately 2 min of death, and stored at −80° C. for gene expression study. Total RNA was isolated from HepG2 cells and rats liver tissues using RiboPure RNA Isolation Kit according to the manufacturer's instructions. […] Real-time quantitative PCR was performed using the Quantict Probe Real time PCR master mix according to the manufacturer's instructions. TaqMan Primers and probes specific for LDLR and HMG-COA genes were designed using the sequence entries from GenBank (Table. 1) Database and synthesis by Integrated DNA Technologies (IDT). Human beta-actin mRNA was used as housekeeping gene, TaqMan Primers and probes specific for human beta-actin gene was synthesis by Sigma Aldrich. The probes were labeled with FAM 3′ end and the fluorophores 6FAM at 5′ end. The real-time quantitative PCR reaction for each sample was carried out in triplicate and each experiment was repeated twice. […] Analysis of gene expression data was carried out by ΔΔCT method of relative quantification, according to Kenneth, et al, (2001) (32). […]

[4] = tested on: Apo E mRNA; assay: Apo E mRNA expression in rat liver, real-time PCR; conditions: rat liver (in vivo), compared to the control
[5] = tested on: Apo B100 mRNA; assay: Apo B100 mRNA expression in rat liver, real-time PCR; conditions: rat liver (in vivo), compared to the control
[6] = tested on: Apo E mRNA; assay: Apo E mRNA expression in HepG2 cells, real-time PCR; format: cell-based, human; conditions: HepG2 cells (in vitro), compared to the control
Description: as §1

[7] = tested on: HMG-COAR mRNA; assay: HMG-COAR mRNA expression in HepG2 cells, real-time PCR; format: cell-based, human; conditions: HepG2 cells (in vitro), compared to the control
Description: as §1

[8] = tested on: Apo A-1 mRNA; assay: Apo A-1 mRNA expression in rat liver, real-time PCR; conditions: rat liver (in vivo), compared to the control
[9] = tested on: Apo B100 mRNA; assay: Apo B100 mRNA expression in HepG2 cells, real-time PCR; format: cell-based, human; conditions: HepG2 cells (in vitro), compared to the control
Description: as §1

[10] = tested on: hydroxyl radical; assay: Hydroxyl radical scavenging activity of rat plasma by ESR; format: in vivo; conditions: plasma of rats after 8 weeks of treatment, different doses
[11] = tested on: LDLR mRNA; assay: LDLR mRNA expression in liver of experimental rats, quantitative real-time PCR; format: in vivo; conditions: rat liver, compared with untreated rats
[12] = tested on: Sprague-Dawley rats fed with diets supplemented with 1% cholesterol; assay: Hypocholesterolemic effect of TQRF and TQ in rats fed 1% cholesterol diet (plasma TC, LDLC); format: in vivo, rat; conditions: for TC levels in experimental rats: 1% cholesterol diet
[13] = Toxicity parameters (ALT, GGT, urea, creatinine) of plasma from experimental rats; conditions: rat, in vivo
Description: In the present invention, the in vivo (rabbit study) antioxidant activity of NSP and NSO were measured using Selectra E manufacture Vital scientific machine (UK) and with commercial kits (Randox, Crumlin, Co. Antrim, UK). The present invention provides a method of the antioxidant activity of TQRF and TQ on .OH scavenging activity using ESR in experimental rats. The present invention provided clear understanding of the molecular mechanism by which TQRF and TQ exert their lowering cholesterol property. The regulatory effect of TQRF and TQ on genes involved in cholesterol metabolism such as LDLR, HMG-COAR, Apo A-1, Apo B100 and Apo E were investigated in vitro using HepG2 cells and in vivo using Sprague-Dawley rats. The present invention also provides evidence on the safety of selective doses of TQRF, TQ, NSO and NSP by measuring the toxicity parameters including Alanine aminotransferase (ALT), Gamma-glutamyltranspeptidase (GGT), urea and creatinine of plasma collected from experimental rats and rabbits.
Toxicity parameter including, ALT of plasma samples collected from experimental rats at baseline, middle of the treatment and the end f the treatment s were measured using analytical kit by kinetic UV assay using Roche Selectra E machine.

CC1=CC(=O)C(C(C)C)=CC1=O [TQ, Thymoquinone]
increase of LDLR mRNA expression level [1]: two | Apo A-I mRNA expression [2]: up-regulated | HMG-COAR mRNA expression [3]: down-regulated | Apo E mRNA expression [4]: up-regulated | Apo B100 mRNA expression [5]: down-regulated | Apo E mRNA expression [6]: up-regulated | HMG-COAR mRNA expression [7]: down-regulated | Apo A-I mRNA expression [8]: up-regulated | Apo B100 mRNA expression [9]: down-regulated | hydroxyl radical scavenging activity of plasma (ESR) [10]: able to directly scavenge .OH | increase of LDLR mRNA level ([11]; TQ 20 mg/kg body weight): two | increase of LDLR mRNA level ([11]; TQ 100 mg/kg body weight): seven | TC levels in experimental rats ([12]; TQ 1 group (20 mg/kg oral emulsion), after 4 weeks): 1.49 ± 0.24 ^b mmol/l | TC levels in experimental rats ([12]; TQ 1 group (20 mg/kg oral emulsion), after 8 weeks): 1.48 ± 0.22 ^a, c mmol/l | TC levels in experimental rats ([12]; TQ 1 group (20 mg/kg oral emulsion), baseline): 0.85 ± 0.19 mmol/L | TC levels in experimental rats ([12]; TQ 2 group (50 mg/kg oral emulsion), after 4 weeks): 1.47 ± 0.31 ^b mmol/l | TC levels in experimental rats ([12]; TQ 2 group (50 mg/kg oral emulsion), after 8 weeks): 1.01 ± 0.34 ^a mmol/l | TC levels in experimental rats ([12]; TQ 2 group (50 mg/kg oral emulsion), baseline): 0.97 ± 0.05 mmol/L | TC levels in experimental rats ([12]; TQ 3 group (dose 20 mg/kg, oral emulsion), after 4 weeks): 1.41 ± 0.48 ^b mmol/l | TC levels in experimental rats ([12]; TQ 3 group (dose 20 mg/kg, oral emulsion), after 8 weeks): 0.94 ± 0.30 ^a mmol/l | TC levels in experimental rats ([12]; TQ 3 group (dose 20 mg/kg, oral emulsion), baseline): 0.87 ± 0.26 mmol/L | plasma low density lipoprotein cholesterol (LDLC) ([12]; rats, different doses for 8 weeks, compared to controlled group): significant decrease | toxicity (hepatic and kidney enzyme stability, organ integrity) [13]: non toxic
